Results: paper PMC9262797, “Spectrum and characterization of bi-allelic variants in MMAB causing cblB-type methylmalonic aciduria” (Human Genetics, 2021)

T1: MMAB (recombinant human MMAB, amino acids 56–250) (Homo sapiens, UniProt Q96EY8)
T1 construct: N-terminally truncated residues 56-250, mitochondrial leader omitted; homotrimer, native mass 78 kDa by SEC
T1 sequence (Q96EY8 56-250): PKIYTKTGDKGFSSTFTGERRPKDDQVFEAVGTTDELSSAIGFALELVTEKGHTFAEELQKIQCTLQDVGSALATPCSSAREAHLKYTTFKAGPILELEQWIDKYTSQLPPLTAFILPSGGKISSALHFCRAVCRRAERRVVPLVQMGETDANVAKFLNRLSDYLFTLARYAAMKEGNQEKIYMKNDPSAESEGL

B1: human methylmalonyl-CoA mutase (MMUT) (enzyme, UniProt P22033 33-750, looked up)
chain: LHQQQPLHPEWAALAKKQLKGKNPEDLIWHTPEGISIKPLYSKRDTMDLPEELPGVKPFTRGPYPTMYTFRPWTIRQYAGFSTVEESNKFYKDNIKAGQQGLSVAFDLATHRGYDSDNPRVRGDVGMAGVAIDTVEDTKILFDGIPLEKMSVSMTMNGAVIPVLANFIVTGEEQGVPKEKLTGTIQNDILKEFMVRNTYIFPPEPSMKIIADIFEYTAKHMPKFNSISISGYHMQEAGADAILELAYTLADGLEYSRTGLQAGLTIDEFAPRLSFFWGIGMNFYMEIAKMRAGRRLWAHLIEKMFQPKNSKSLLLRAHCQTSGWSLTEQDPYNNIVRTAIEAMAAVFGGTQSLHTNSFDEALGLPTVKSARIARNTQIIIQEESGIPKVADPWGGSYMMECLTNDVYDAALKLINEIEEMGGMAKAVAEGIPKLRIEECAARRQARIDSGSEVIVGVNKYQLEKEDAVEVLAIDNTSVRNRQIEKLKKIKSSRDQALAERCLAALTECAASGDGNILALAVDASRARCTVGEITDALKKVFGEHKANDRMVSGAYRQEFGESKEITSAIKRVHKFMEREGRRPRLLVAKMGQDGHDRGAKVIATGFADLGFDVDIGPLFQTPREVAQQAVDADVHAVGISTLAAGHKTLVPELIKELNSLGRPDILVMCGGVIPPQDYEFLFEVGVSNVFGPGTRIPKAAVQVLDDIEKCLEKKQQSV
notes: methylmalonyl-CoA mutase (MMUT), human, recombinant; also called apo-MMUT; holo-MMUT; source: recombinant, produced as previously described (Plessl et al. 2017), purified
B2: human ATP:cob(I)alamin adenosyltransferase (MMAB), amino acids 56-250 (enzyme, UniProt Q96EY8 56-250, looked up)
chain: PKIYTKTGDKGFSSTFTGERRPKDDQVFEAVGTTDELSSAIGFALELVTEKGHTFAEELQKIQCTLQDVGSALATPCSSAREAHLKYTTFKAGPILELEQWIDKYTSQLPPLTAFILPSGGKISSALHFCRAVCRRAERRVVPLVQMGETDANVAKFLNRLSDYLFTLARYAAMKEGNQEKIYMKNDPSAESEGL
notes: ATP:cob(I)alamin adenosyltransferase (MMAB), human, N-terminally truncated, amino acids 56-250; same residues as in the human MMAB structure of Campanello et al. 2018; also called ATP:cobalamin adenosyltransferase; apo-MMAB; source: recombinant, produced as previously described (Plessl et al. 2017), purified

Experiments:
[1] = molecular target: T1, MMAB (recombinant human MMAB, amino acids 56–250); assay: isothermal titration calorimetry; format: binding
[2] = molecular target: T1, MMAB (recombinant human MMAB, amino acids 56–250); assay: fluorescence titration (MMAB into […] MANT-ATP, ex […] / em […] nm); format: binding
[3] = molecular target: the molecule itself; assay: SEC; analytical gel filtration, Superose 6 Increase 10/300 GL, Buffer A (100 mM HEPES pH 7.5, 300 mM KCl, 250 µM MgCl2, 5% glycerol); 100 µl of protein at 25 µM; calibrated with 29, 150 and 443 kDa standards

| Molecule | stoichiometry N [3] | other results |
| --- | --- | --- |
| Nc1ncnc2c1ncn2[C@@H]1O[C@H](COP(=O)(O)OP(=O)(O)OP(=O)(O)O)[C@@H](O)[C@H]1O [ATP] |  | Kd [1]: 14.2 ± 0.6 µM |
| CNc1ccccc1C(=O)O[C@H]1[C@@H](O)[C@H](n2cnc3c(N)ncnc32)O[C@@H]1CO[P@@](=O)(O)O[P@](=O)(O)OP(=O)(O)O [MANT-ATP, 2',3'-O-(N-Methyl-anthraniloyl)-adenosine-5'-triphosphate] |  | Kd [2]: 21.1 ± 3.4 µM |
| B1 | 2 |  |
| B2 | 3 |  |
